Test results published in patent US8598202B2, “Aryl-hydroxyethylamino-pyrimidines and triazines as modulators of fatty acid amide hydrolase” (Janssen Pharmaceutica NV, priority 2008, dated 2013).
Counter-ions that a name gives are not always drawn. Like-named read-outs stand apart in the source and are kept apart here.

Experiments:
FAAH = biological target: T1, FAAH (Homo sapiens, UniProt O00519); experiment: Assay Method 1: FAAH assay, 3H-anandamide hydrolysis in homogenate of T84 cells or SK-N-MC cells transfected with human FAAH
T1 sequence (O00519 1-579): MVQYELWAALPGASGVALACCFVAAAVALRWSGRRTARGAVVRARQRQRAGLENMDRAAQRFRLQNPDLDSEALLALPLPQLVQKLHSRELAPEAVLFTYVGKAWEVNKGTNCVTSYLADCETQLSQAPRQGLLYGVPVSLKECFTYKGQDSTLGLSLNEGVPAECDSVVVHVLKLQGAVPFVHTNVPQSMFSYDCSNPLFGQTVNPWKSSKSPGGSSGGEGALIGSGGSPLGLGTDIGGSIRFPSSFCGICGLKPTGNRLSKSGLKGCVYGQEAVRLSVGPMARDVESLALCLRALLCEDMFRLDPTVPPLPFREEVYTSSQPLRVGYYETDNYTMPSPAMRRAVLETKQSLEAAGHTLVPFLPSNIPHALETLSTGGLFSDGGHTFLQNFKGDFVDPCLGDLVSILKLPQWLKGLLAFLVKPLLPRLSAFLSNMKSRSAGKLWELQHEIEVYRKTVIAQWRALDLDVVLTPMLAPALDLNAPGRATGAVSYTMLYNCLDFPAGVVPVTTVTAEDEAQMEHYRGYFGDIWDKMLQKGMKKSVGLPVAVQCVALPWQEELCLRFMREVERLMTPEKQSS

Rat FAAH-1 = biological target: T2, Rat FAAH-1 (Rattus norvegicus, UniProt P97612); experiment: Assay Method 2: rat FAAH-1 assay, 3H-anandamide hydrolysis in homogenate of SK-N-MC cells transfected with rat FAAH
T2 sequence (P97612 1-579): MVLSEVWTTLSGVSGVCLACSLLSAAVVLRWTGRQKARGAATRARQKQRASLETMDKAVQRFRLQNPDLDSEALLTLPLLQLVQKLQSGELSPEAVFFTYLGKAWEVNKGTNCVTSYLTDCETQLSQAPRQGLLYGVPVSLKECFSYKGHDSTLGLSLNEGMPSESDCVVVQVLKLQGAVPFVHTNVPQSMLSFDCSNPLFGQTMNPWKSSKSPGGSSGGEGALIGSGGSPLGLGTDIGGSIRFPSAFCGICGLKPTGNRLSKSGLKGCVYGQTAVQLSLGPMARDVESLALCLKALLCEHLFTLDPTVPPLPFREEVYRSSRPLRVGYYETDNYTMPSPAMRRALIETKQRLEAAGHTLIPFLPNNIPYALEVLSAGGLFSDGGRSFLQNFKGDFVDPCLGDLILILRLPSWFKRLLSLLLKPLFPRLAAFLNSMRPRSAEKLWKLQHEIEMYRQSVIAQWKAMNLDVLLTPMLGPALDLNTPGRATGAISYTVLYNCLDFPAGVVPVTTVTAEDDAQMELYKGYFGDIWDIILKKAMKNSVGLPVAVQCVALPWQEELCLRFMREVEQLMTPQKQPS
Procedure: The assay mixture consisted of 50 μL of the cell homogenate, 10 μL of the test compound, and 40 μL of anandamide [1-^3H-ethanolamine] (^3H-AEA, Perkin-Elmer, 10.3 Ci/mmol), which was added last, for a final tracer concentration of 80 nM. The reaction mixture was incubated at rt for 1 h. During the incubation, 96-well Multiscreen filter plates (catalog number MAFCNOB50; Millipore, Bedford, Mass., USA) were loaded with 25 μL of activated charcoal (Multiscreen column loader, catalog number MACL09625, Millipore) and washed once with 100 μL of MeOH. […] After the 1 h incubation, 60 μL of the reaction mixture were transferred to the charcoal plates, which were then assembled on top of the DYNEX plates using Centrifuge Alignment Frames (catalog number MACF09604, Millipore). The unbound labeled ethanolamine was centrifuged through to the bottom plate (5 min at 2000 rpm), which was preloaded with the scintillant, as described above. The plates were sealed and left at rt for 1 h before counting on a Hewlett Packard TopCount.

Row | SMILES | IC50 (FAAH) [nM] | IC50 (Rat FAAH-1) [nM] | IC50 (FAAH; read-out: Assay 1 IC50, Table 2, Comparative Examples, human FAAH) [nM] | IC50 (Rat FAAH-1; read-out: Assay 2 IC50, Table 2, Comparative Examples, rat FAAH-1) [nM]
1 | OC(CNc1cc(-c2ccc(C(F)(F)F)c(Cl)c2)ncn1)c1nc2ccccc2s1 (stereo not shown) [Example 216, 1-Benzothiazol-2-yl-2-[6-(3-chloro-4-trifluoromethyl-phenyl)-pyrimidin-4-ylamino]-ethanol] | > 10000 | > 10000 | – | –
2 | Cc1noc2cc(-c3cc(NC[C@H](O)c4ccccc4)ncn3)ccc12 [Example 165, (1R)-2-{[6-(3-Methyl-1,2-benzisoxazol-6-yl)pyrimidin-4-yl]amino}-1-phenylethanol] | 4 | 19 | – | –
3 | COc1nc(NC[C@H](O)c2ccccc2)cc(-c2ccc(C(F)(F)F)c(Cl)c2)n1 [Example 164, (1R)-2-({6-[3-Chloro-4-(trifluoromethyl)phenyl]-2-methoxypyrimidin-4-yl}amino)-1-phenylethanol trifluoroacetic acid salt] | 15 | 14 | – | –
4 | CCOc1ccc(-c2cc(NCC(O)c3ccccc3)ncn2)cc1 (stereo not shown) [Example 11, 2-({6-[4-(Ethyloxy)phenyl]pyrimidin-4-yl}amino)-1-phenylethanol] | 34 | 375 | – | –
5 | CCCCOc1ccc(-c2cc(NC[C@H](O)c3ccccc3)ncn2)cc1F [Example 33, (1R)-2-{[6-(4-Butoxy-3-fluorophenyl)pyrimidin-4-yl]amino}-1-phenylethanol trifluoroacetic acid salt] | 270 | 2000 | – | –
6 | O[C@@H](CNc1cc(-c2ccc(OC(F)(F)F)c(F)c2)ncn1)c1ccc(F)cc1 [Example 174, (1R)-1-(4-Fluorophenyl)-2-({6-[3-fluoro-4-(trifluoromethoxy)phenyl]pyrimidin-4-yl}amino)ethanol trifluoroacetic acid salt] | 2 | 5 | – | –
7 | Oc1ccc(-c2cc(NCC(O)c3ccccc3)ncn2)cc1 (stereo not shown) [CE6, 4-[6-(2-Hydroxy-2-phenyl-ethylamino)-pyrimidin-4-yl]-phenol, reference compound] | – | – | 7000 | > 10000
8 | OC(CNc1cc(-c2ccc(C(F)(F)F)c(Cl)c2)ncn1)c1ccsc1 (stereo not shown) [Example 168, 2-({6-[3-Chloro-4-(trifluoromethyl)phenyl]pyrimidin-4-yl}amino)-1-thiophen-3-ylethanol] | 66 | 42 | – | –
9 | N#Cc1cccc(C(O)CNc2cc(-c3ccc(C(F)(F)F)c(Cl)c3)ncn2)c1 (stereo not shown) [Example 206, 3-[2-({6-[3-Chloro-4-(trifluoromethyl)phenyl]pyrimidin-4-yl}amino)-1-hydroxyethyl]benzonitrile] | 25 | 15 | – | –
10 | OC(CNc1cc(-c2ccc(Cl)c(Cl)c2)ncn1)c1ccccc1 (stereo not shown) [Example 8, 2-{[6-(3,4-Dichlorophenyl)pyrimidin-4-yl]amino}-1-phenylethanol] | 74 | 168 | – | –
11 | O[C@@H](CNc1cc(-c2ccc(C(F)(F)F)c(F)c2)ncn1)c1ccc(F)cc1 [Example 173, (1R)-1-(4-Fluorophenyl)-2-({6-[3-fluoro-4-(trifluoromethyl)phenyl]pyrimidin-4-yl}amino)ethanol] | 2 | 11 | – | –
12 | NCCNc1nc(NC[C@H](O)c2ccccc2)cc(-c2ccc(C(F)(F)F)c(Cl)c2)n1 [Example 157, (1R)-2-({2-[(2-Aminoethyl)amino]-6-[3-chloro-4-(trifluoromethyl)phenyl]pyrimidin-4-yl}amino)-1-phenylethanol trifluoroacetic acid salt] | 2000 | 4000 | – | –
13 | OC(CNc1cc(-c2c(C(F)(F)F)cccc2C(F)(F)F)ncn1)c1ccccc1 (stereo not shown) [CE1, 2-[6-(2,6-Bis-trifluoromethyl-phenyl)-pyrimidin-4-ylamino]-1-phenyl-ethanol, reference compound] | > 10000 | > 10000 | – | –
14 | O=S(=O)(c1ccc(-c2cc(NC[C@H](O)c3ccccc3)ncn2)cc1)N1CCCCC1 [Example 79, (1R)-1-Phenyl-2-({6-[4-(piperidin-1-ylsulfonyl)phenyl]pyrimidin-4-yl}amino)ethanol] | 542 | 530 | – | –
